Data as given in patent publication US6939707B2, “Isolated nucleic acid molecules which encode GAGE genes and uses thereof” (Ludwig Institute for Cancer Research, priority 1993, dated 2005).
Ends that are not written are not given here.

Tests used:
Type in all cases: cell-based, human
CTL 76/6 = assay: TNF release by CTL 76/6 on peptide-pulsed COS-7 cells transfected with HLA-Cw6 cDNA; conditions: peptide 20 ug/ml, 90 minutes at 37° C., 3000 CTLs, TNF in supernatant after eighteen hours tested on WEHI-164-13 cells
Protocol: Each peptide was pulsed into COS-7 cells previously transfected with HLA-Cw6 cDNA, and combined with CTL 76/6 to determine if TNF release would be induced. Peptides (20 ug/ml) were added to COS-7 cells which had been transfected with the HLA-Cw6 cDNA twenty-four hours previously After incubation at 37° C. for 90 minutes, medium was discarded, and 3000 CTLs were added in 100 microliters of medium, containing 25 units/ml of IL-2. Eighteen hours later, TNF content of supernatant was tested via determining toxicity on WEHI-164-13 cells. […] The second peptide was used for further experiments.

HLA-A29 = assay: 51Cr release lytic assay with GAGE-3 to 6 derived peptides (HLA-A29); conditions: FIG. 8; successive deletions of SEQ ID NO: 21
Protocol: The lysis assay employed was a chromium release assay following Herin et at., Int. […] The target melanoma cells were grown in vitro, and then resuspended at 10^7 cells/ml in DMEM, supplemented with 10 mM Hepes and 30% FCS, and incubated for 45 minutes at 37° C. with 200 μCi/ml of Na(^51Cr)O4. Labeled cells were washed three times with DMEM supplemented with 10 mM Hepes. These were then resuspended in DMEM supplemented with 10 mM Hepes and 10% FCS, after which 100 ul aliquots containing 10^3 cells, were distributed into 96 well microplates. Samples of PBLs were added in 100 ul of the same medium, and assays were earned out in duplicate. Plates were centrifuged for 4 minutes at 100 g, and incubated for four hours at 37° C. in an 8% CO2 atmosphere.
The peptide (SEQ ID NO: 21) was tested in a ^51Cr release experiment, following the method described supra.
Successive deletions were prepared, and tested for their ability to provoke lysis, again using the ^51Cr lytic assay.

LB33-EBV cells = assay: 51Cr release lysis of peptide-incubated LB33-EBV cells (HLA-Cw6 positive) by CTL 76/6; conditions: CTL 76/6, effector:target ratio 10:1, four hours at 37° C., varying peptide concentration (FIG. 3)
Protocol: The lysis assay employed was a chromium release assay following Herin et at., Int. J. Cancer 39;390-396 (1987), the disclosure of which is incorporated by reference. The assay, however, is described herein. The target melanoma cells were grown in vitro, and then resuspended at 10^7 cells/ml in DMEM, supplemented with 10 mM Hepes and 30% FCS, and incubated for 45 minutes at 37° C. with 200 μCi/ml of Na(^51Cr)O4. Labeled cells were washed three times with DMEM supplemented with 10 mM Hepes. These were then resuspended in DMEM supplemented with 10 mM Hepes and 10% FCS, after which 100 ul aliquots containing 10^3 cells, were distributed into 96 well microplates. Samples of PBLs were added in 100 ul of the same medium, and assays were earned out in duplicate. Plates were centrifuged for 4 minutes at 100 g, and incubated for four hours at 37° C. in an 8% CO2 atmosphere.
Plates were centrifuged again, and 100 ul aliquots of supernatant were collected and counted. Percentage of ^51Cr release was calculated as follows: [formula] where ER is observed, experimental ^51Cr release, SR is spontaneous release measured by incubating 10^3 labeled cells in 200 ul of medium alone, and MR is maximum release, obtained by adding 100 ul 0.3% Triton X-100 to target cells.
Various peptides based upon SEQ ID NO: 13 were synthesized, and tested, some of which are presented below. To carry out these tests ^51Cr labelled LB33-EBV cells, which are HLA-Cw6 positive, were incubated with one of the following peptides:
Levels of lysis for positive (“F^+”, MZ2-MEL.3.1), and negative (“F”; MZ2-MEL.2.2.5) control cells are indicated, in FIG. 3.

HLA-Cw6 positive cells = assay: Lysis of peptide-pulsed HLA-Cw6 positive cells by CTL 82/31; conditions: HLA-Cw6 positive cells pulsed with peptide; results not reported in detail
Protocol: In results not reported here, a second CTL was tested (CTL 82/31).

MSWRGRSTYRPRPRR [SEQ ID NO: 12]
TNF induced (CTL 76/6): less than 10 pg/ml

RSTYYWPRPRRYVQ [SEQ ID NO: 21]
ability to provoke lysis (51Cr release) (HLA-A29): did provoke lysis

TRPRPRRYV [SEQ ID NO: 6]
CTL lysis (51Cr release) (LB33-EBV cells): induced CTL lysis albeit to a lesser extent

TYRPRPRRY [SEQ ID NO: 5]
CTL lysis (51Cr release) (LB33-EBV cells): induced CTL lysis albeit to a lesser extent

TYRPRPRRYVEPPEMI [SEQ ID NO: 13]
TNF induced (CTL 76/6): more than 30 pg/ml

Tyr Tyr Trp Pro Arg Pro Arg Arg Tyr [SEQ ID NO: 22]
ability to provoke lysis (51Cr release) (HLA-A29): shortest peptide to provoke lysis

YRPRPRRY [SEQ ID NO: 4, octamer tumor rejection antigen presented by HLA-Cw6]
CTL lysis (51Cr release) (LB33-EBV cells): the best peptide
lysis by second CTL (CTL 82/31) (HLA-Cw6 positive cells): lysed HLA-Cw6 positive cells
